Reference: patent publication US20230123334A1, “AMINO LIPID COMPOUND, PREPARATION METHOD THEREFOR, AND APPLICATION THEREOF” (SHENZHEN SHENXIN BIOTECHNOLOGY CO., LTD., priority 2020, published 2023)

Test system: HEK293 cells
Test: Preliminary screening as mRNA vectors, EGFP mRNA transfection of HEK293 cells
Assay type: cell-based
Conditions: EGFP mRNA 50 ng per well, 96-well plates; percentage of GFP fluorescent cells relative to total number of cells (Hoechst)
Description: Cell line: HEK293 cells (ATCC CRL-1573™)
Medium: DMEM supplemented with 10% fetal bovine serum (Invitrogen)
Screening: cell transfection on 96-well plates
Detection (readout): percentage of the number of GFP fluorescent cells relative to the total number of cells (the total number of cells was determined using nucleus dye Hoechst). Lipofectamine2000 (Invitrogen) was used as the positive control.
Method: the experimental method was basically the same with Example 4, and the mass of EGFP mRNA (TriLink) for transfection was 50 ng per well.

In the case of `CCCCCCCCCSc1nc(NCCCCCCCC)nc(NCCCN2CCOCC2)n1` [Compound D8S9N8], the “Absolute mRNA transfection efficiency in HEK293 cells” value (“Absolute mRNA transfection efficiency” for short) is reported as 5.7%.

In the case of `CCCCCCCCCCCCCCSc1nc(NCCN(CC)CC)nc(SCCCCCCC)n1` [Compound D7S7S14], the “Absolute mRNA transfection efficiency” value is reported as 4.1%.

With `CCCCCCCCCCCNc1nc(NCCCN(C)C)nc(SCCCCCC)n1` [Compound D6S6N11] the “Absolute mRNA transfection efficiency” value was 2.5%.

With `CCCCCCCCCCCCCNc1nc(NCCCN(C)C)nc(SCCCCCCCCCC)n1` [Compound D6S10N13] the “Absolute mRNA transfection efficiency” value was 10.2%.

`CCCCCCCCCCCCCCSc1nc(NCCCCCC)nc(NCCN(C)C)n1` [Compound D1S14N6] was tested, and the “Absolute mRNA transfection efficiency” value was 29.1%.

For `CCCCCCCCCCCCNc1nc(NCCN2CCCCC2)nc(SCCCCCC)n1` [Compound D4S6N12], the “Absolute mRNA transfection efficiency” value was 0.7%.

In the case of `CCCCCCCCCCCCN(CCCCCCCCCCCC)c1nc(NCCN(CC)CC)nc(SCCCCCCCCCC)n1` [D7S10^2N12], the “Absolute mRNA transfection efficiency” value is reported as 0.0%.

For `CCCCCCCCCNc1nc(NCCN2CCCC2)nc(SCCCCCCC)n1` [Compound D3S7N9], the “Absolute mRNA transfection efficiency” value was 2.8%.

In the case of `CCCCCCCCCCCSc1nc(NCCCCCCC)nc(NCCCN(C)C)n1` [Compound D6S11N7], the “Absolute mRNA transfection efficiency” value is reported as 29.1%.

`CCCCCCCCNc1nc(NCCN(CC)CC)nc(SCCCCCCC)n1` [Compound D7S7N8] was tested, and the “Absolute mRNA transfection efficiency” value was 3.5%.

`CCCCCCCCCCCCCNc1nc(NCCN(CC)CC)nc(SCCCCCC)n1` [Compound D7S6N13] was tested, and the “Absolute mRNA transfection efficiency” value was 2.6%.

In the case of `CCCCCCCCCCCSc1nc(NCCCCCCC)nc(NCCCN2CCN(C)CC2)n1` [Compound D9S11N7], the “Absolute mRNA transfection efficiency” value is reported as 10.5%.

`CCCCCCCCCCCNc1nc(NCCN2CCCCC2)nc(SCCCCCCCCCCC)n1` [Compound D4S11N11] was tested, and the “Absolute mRNA transfection efficiency” value was 2.0%.

For `CCCCCCCCCCCCCCCNc1nc(NCC2CCN(C)CC2)nc(SCCCCCCCCCCCCCCC)n1` [Compound D10S15N15], the “Absolute mRNA transfection efficiency” value was 2.4%.

For `CCCCCCCCCCCCN(CCCCCCCCCCCC)c1nc(NCCCN2CCN(C)CC2)nc(SCCCCCCCCCC)n1` [D9S10^2N12], the “Absolute mRNA transfection efficiency” value was 0.3%.

In the case of `CCCCCCCCCCCCCCCCCCNc1nc(NCCN2CCCC2)nc(SCCCCCCCCCCCCCCC)n1` [Compound D3S15N18], the “Absolute mRNA transfection efficiency” value is reported as 8.5%.

With `CCCCCCCCCCCCCCCCCCNc1nc(NCCCN(C)C)nc(SCCCCCCCCCCCCCC)n1` [Compound D6S14N18] the “Absolute mRNA transfection efficiency” value was 0.7%.

For `CCCCCCCCCCSc1nc(NCCN2CCCC2)nc(SCCCCCCC)n1` [Compound D3S7S10], the “Absolute mRNA transfection efficiency” value was 3.3%.

In the case of `CCCCCCCCCCCCCCSc1nc(NCCCCCCCCCCCCC)nc(NCCN2CCN(C)CC2)n1` [Compound D5S14N13], the “Absolute mRNA transfection efficiency” value is reported as 12.9%.

In the case of `CCCCCCCCCCCCCCCCSc1nc(NCCN2CCN(C)CC2)nc(SCCCCCCC)n1` [Compound D5S7S16], the “Absolute mRNA transfection efficiency” value is reported as 49.2%.

`CCCCCCCCCCCSc1nc(NCCCN2CCOCC2)nc(SCCCCCCCC)n1` [Compound D8S8S11] was tested, and the “Absolute mRNA transfection efficiency” value was 22.2%.

With `CCCCCCCCCCCCCCCCCCSc1nc(NCCCCCCCCCCCCCCCC)nc(NCCN(CC)CC)n1` [Compound D7S18N16] the “Absolute mRNA transfection efficiency” value was 0.3%.

`CCCCCCCCCCCCSc1nc(NCC2CCN(C)CC2)nc(SCCCCCC)n1` [Compound D10S6S12] was tested, and the “Absolute mRNA transfection efficiency” value was 41.2%.

For `CCCCCCCCCCCCCCCSc1nc(NCCCCCCC)nc(NCCCN(C)C)n1` [Compound D6S15N7], the “Absolute mRNA transfection efficiency” value was 46.1%.

For `CCCCCCCCCCCNc1nc(NCCN(CC)CC)nc(SCCCCCCCCCC)n1` [Compound D7S10N11], the “Absolute mRNA transfection efficiency” value was 3.1%.

`CCCCCCCCCCCCCCCSc1nc(NCCCCCCCCC)nc(NCCCN(C)C)n1` [Compound D6S15N9] was tested, and the “Absolute mRNA transfection efficiency” value was 61.9%.

`CCCCCCCCCCCCSc1nc(NCCCCCCC)nc(NCCN2CCN(C)CC2)n1` [Compound D5S12N7] was tested, and the “Absolute mRNA transfection efficiency” value was 9.9%.

With `CCCCCCCCCCCCCCSc1nc(NCCCCCCCCC)nc(NCCN2CCOCC2)n1` [Compound D2S14N9] the “Absolute mRNA transfection efficiency” value was 7.4%.

In the case of `CCCCCCCCCCCCCCSc1nc(NCCN2CCN(C)CC2)nc(SCCCCCC)n1` [Compound D5S6S14], the “Absolute mRNA transfection efficiency” value is reported as 45.3%.

`CCCCCCCCCCCCCCCCCCSc1nc(NCCCN(C)C)nc(N(CCCCCCCCCCCC)CCCCCCCCCCCC)n1` [D6S18^2N12] was tested, and the “Absolute mRNA transfection efficiency” value was 0.1%.

For `CCCCCCCCCCCCSc1nc(NCCCCCCCC)nc(NCCN2CCOCC2)n1` [Compound D2S12N8], the “Absolute mRNA transfection efficiency” value was 1.6%.

In the case of `CCCCCCCCCSc1nc(NCCN(CC)CC)nc(SCCCCCCCC)n1` [Compound D7S8S9], the “Absolute mRNA transfection efficiency” value is reported as 11.1%.

For `CCCCCCCCCCCSc1nc(NCCCN2CCN(C)CC2)nc(SCCCCCC)n1` [Compound D9S6S11], the “Absolute mRNA transfection efficiency” value was 8.5%.

With `CCCCCCCCCCCCCCCCCCSc1nc(NCCCCCCCCCCCCCCCC)nc(NCC2CCN(C)CC2)n1` [Compound D10S18N16] the “Absolute mRNA transfection efficiency” value was 0.4%.

With `CCCCCCCCCCCCCCCNc1nc(NCCCN2CCOCC2)nc(SCCCCCCCCCCCCCC)n1` [Compound D8S14N15] the “Absolute mRNA transfection efficiency” value was 0.0%.

With `CCCCCCCCCCCCCNc1nc(NCCN2CCCC2)nc(SCCCCCCCC)n1` [Compound D3S8N13] the “Absolute mRNA transfection efficiency” value was 35.8%.

With `CCCCCCCCCNc1nc(NCCN2CCCC2)nc(SCCCCCCCCC)n1` [Compound D3S9N9] the “Absolute mRNA transfection efficiency” value was 15.4%.

With `CCCCCCCCCCCCN(CCCCCCCCCCCC)c1nc(NCCN2CCCC2)nc(SCCCCCCCCCCC)n1` [D3S11^2N12] the “Absolute mRNA transfection efficiency” value was 0.0%.

In the case of `CCCCCCCCCCCCCCCNc1nc(NCCN2CCN(C)CC2)nc(SCCCCCCCCCCCCCCC)n1` [Compound D5S15N15], the “Absolute mRNA transfection efficiency” value is reported as 0.7%.

For `CCCCCCCCCCCCSc1nc(NCCCCCCC)nc(NCCN2CCCCC2)n1` [Compound D4S12N7], the “Absolute mRNA transfection efficiency” value was 0.5%.

With `CCCCCCCCCCCCSc1nc(NCCN2CCCC2)nc(N(CCCCCCCCCCCC)CCCCCCCCCCCC)n1` [D3S12^2N12] the “Absolute mRNA transfection efficiency” value was 2.2%.

For `CCCCCCCCCCSc1nc(NCCCCCCCC)nc(NCC2CCN(C)CC2)n1` [Compound D10S10N8], the “Absolute mRNA transfection efficiency” value was 1.7%.

`CCCCCCCCCCCSc1nc(NCCCCCCCCC)nc(NCCN2CCCC2)n1` [Compound D3S11N9] was tested, and the “Absolute mRNA transfection efficiency” value was 24.5%.

With `CCCCCCCCCCCCNc1nc(NCCCN2CCOCC2)nc(SCCCCCCCCC)n1` [Compound D8S9N12] the “Absolute mRNA transfection efficiency” value was 11.2%.

With `CCCCCCCCCCCCCCCNc1nc(NCCCN(C)C)nc(SCCCCCCCCCCCCCCC)n1` [Compound D6S15N15] the “Absolute mRNA transfection efficiency” value was 0.8%.

In the case of `CCCCCCCCCCCCCCCNc1nc(NCCN(CC)CC)nc(SCCCCCCC)n1` [Compound D7S7N15], the “Absolute mRNA transfection efficiency” value is reported as 18.5%.

In the case of `CCCCCCCCCCCCCCCCCCSc1nc(NCCCCCCCCCCCCCCCC)nc(NCCN(C)C)n1` [Compound D1S18N16], the “Absolute mRNA transfection efficiency” value is reported as 0.1%.

`CCCCCCCCCCCCCCCCCCSc1nc(NCCCCCCCCCCCCCCCC)nc(NCCCN2CCOCC2)n1` [Compound D8S18N16] was tested, and the “Absolute mRNA transfection efficiency” value was 0.0%.

With `CCCCCCCCCCCNc1nc(NCCN2CCCC2)nc(SCCCCCC)n1` [Compound D3S6N11] the “Absolute mRNA transfection efficiency” value was 0.7%.
